The source made the active and inactive calls. No cut-off for these calls is given here.
Legend:
A2058 [1] = test: Growth inhibition of human A2058 cells at 10 uM after 72 hrs by MTT assay; assay type: functional
A2058 [2] = test: Antiproliferative activity against human A2058 cells assessed as inhibition of cell growth after 72 hrs by MTT assay; assay type: functional, cell-based; conditions: A2058, 72 h

| SMILES | growth inhibition (GI) (A2058 [1]) | inhibition of growth at 10 µM (A2058 [1]; A2058, 72 h, read-out: GI) [%] | IC50 (A2058 [2]) [µM] |
| --- | --- | --- | --- |
| c1ccc2sc(-n3cnc4ccccc43)cc2c1 | Active | – | – |
| c1ccc2oc(-n3ccnc3)nc2c1 | – | 84.3 | 7.1 |
| c1ccc2oc(-n3cnc4ccccc43)cc2c1 | Active | – | – |
| c1ccc2oc(-n3cnc4ccccc43)nc2c1 | Active | – | – |
| c1ccc2sc(-n3cnc4ccccc43)nc2c1 | Active | – | – |
